Publication PMC5120204, “Identification of an orally active small-molecule PTHR1 agonist for the treatment of hypoparathyroidism” (Nature Communications, 2016)

Key:
hPTHR1 = target: T1, hPTHR1 (Homo sapiens, UniProt Q03431); assay: cAMP production assay in COS-7 cells expressing hPTHR1; assay type: cell-based; settings: COS-7 cells expressing hPTHR1, 20 min
T1 construct: similar to that of cells expressing full-length hPTHR1; expressed in transfected cells; host or cells: COS-7 (transient, FuGENE HD)
T1 sequence (Q03431 27-593 E93Y/D94P/K95Y/E96D/A97V/T99D/G100Y/S101A): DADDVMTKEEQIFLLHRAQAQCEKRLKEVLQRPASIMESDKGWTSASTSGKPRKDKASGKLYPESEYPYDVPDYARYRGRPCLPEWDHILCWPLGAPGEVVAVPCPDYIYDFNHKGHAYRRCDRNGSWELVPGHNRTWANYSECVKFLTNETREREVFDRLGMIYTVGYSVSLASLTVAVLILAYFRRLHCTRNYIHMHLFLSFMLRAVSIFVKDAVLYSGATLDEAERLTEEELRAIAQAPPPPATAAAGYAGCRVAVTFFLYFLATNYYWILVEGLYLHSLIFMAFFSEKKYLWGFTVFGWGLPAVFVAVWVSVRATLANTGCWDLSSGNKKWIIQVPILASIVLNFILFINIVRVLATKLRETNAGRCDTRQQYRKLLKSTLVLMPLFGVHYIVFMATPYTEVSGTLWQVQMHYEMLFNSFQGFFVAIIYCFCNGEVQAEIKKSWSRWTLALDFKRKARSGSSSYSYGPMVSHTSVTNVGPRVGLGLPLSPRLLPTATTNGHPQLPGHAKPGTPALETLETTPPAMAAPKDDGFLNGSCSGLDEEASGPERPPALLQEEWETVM
Protocol: COS-7 cells (ATCC) were seeded into a 96-well flat-bottomed plate (1.4 × 10^4 cells per 100 μl per well) and incubated overnight. The next day, the COS-7 cells were transfected by adding 10 μl of a mixture of hPTHR1, hPTHR2 or mutant hPTHR1 plasmid, rat PTHR1 or rat PTHR2 plasmid, or empty vector (0.1 μg per well), FuGENE HD Transfection Reagent (0.4 μl per well, Promega), and Opti-MEM I Reduced Serum Medium (10 μl per well, Life Technologies) to each well. […] The plate was placed in a 37 °C constant-temperature water bath for 20 min to allow the reaction to proceed. After incubation, the liquid in the wells was discarded, the wells were washed with the assay medium (100 μl per well), and the plate was frozen on dry ice. Next, 40 μl of 50 mmol l^−1 HCl was added to each well, and the plate was stored in a freezer set at ≤−20 °C. The cAMP concentrations were measured by using a cAMP EIA kit (GE Healthcare). EC50 values were determined from three independent experiments in duplicate by a non-linear regression Emax model (JMP ver.9.0.2, SAS Institute). The geometric mean of the EC50 values obtained in three experiments in duplicate was calculated using Microsoft Office Excel 2007. […]

endogenous rat PTHR1 = target: T2, endogenous rat PTHR1 (Rattus norvegicus, UniProt P25961); assay: cAMP production in UMR-106 cells; assay type: cell-based
T2 construct: UMR-106 cells, which natively express rat PTHR1; endogenous in cells; host or cells: UMR-106 (ATCC)
T2 sequence (P25961 27-591): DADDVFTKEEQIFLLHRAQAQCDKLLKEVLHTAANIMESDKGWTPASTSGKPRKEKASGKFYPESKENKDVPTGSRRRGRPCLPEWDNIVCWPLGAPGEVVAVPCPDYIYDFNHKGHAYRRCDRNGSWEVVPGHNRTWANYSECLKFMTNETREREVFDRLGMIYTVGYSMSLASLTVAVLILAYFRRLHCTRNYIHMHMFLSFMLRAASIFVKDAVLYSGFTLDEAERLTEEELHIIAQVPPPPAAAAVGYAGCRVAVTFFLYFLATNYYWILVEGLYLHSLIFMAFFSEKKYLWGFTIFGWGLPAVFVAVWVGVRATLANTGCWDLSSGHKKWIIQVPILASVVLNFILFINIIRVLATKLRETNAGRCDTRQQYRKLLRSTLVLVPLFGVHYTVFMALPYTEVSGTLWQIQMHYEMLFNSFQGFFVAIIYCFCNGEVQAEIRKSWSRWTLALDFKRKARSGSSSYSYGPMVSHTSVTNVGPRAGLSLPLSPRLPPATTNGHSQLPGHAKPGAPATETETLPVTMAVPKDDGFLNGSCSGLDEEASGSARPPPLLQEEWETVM

TPTX rats = assay: Repeated administration study in TPTX rats, study 1; assay type: in vivo, rat
Protocol: TPTX was carried out in 6-week-old female Crl:CD (SD) rats (Charles River Laboratories). Rats with serum Ca levels of <8.0 mg dl^−1 at 5 days after surgery were used in the following experiments. The rats were divided into four groups both in study 1 and 2, each with a similar mean value of serum Ca levels and body weight. Sample sizes were determined as described in the above single administration study. To evaluate the calcemic effects of PCO371 and hPTHs, we defined a target therapeutic range for serum Ca of 7.6–11.2 mg dl^−1, which corresponds to the low normal to normal range of serum Ca levels.
TPTX rats were treated twice daily (at around 09:00 and 19:00 hours) orally (vehicle or PCO371 at 1, 3 or 9 mg kg^−1) or subcutaneously [hPTH(1–34) or vehicle at 9 nmol kg^−1] for 4 weeks. Four rats were assigned to sham control, and treated with vehicle for PCO371. Vehicles for PCO371 and hPTH(1–34) were the same as in the OVX rat study. Under isoflurane anaesthesia, jugular vein blood was collected immediately before and at 6 and 10 h (for PCO371) or at 1 and 10 h (for hPTH) after administrations to measure the serum Ca levels on days 1 (the first dosing day), 7, 14, 22 and 29. Urine was collected for 24 h by using metabolic cages on days 29–30, and Ca excretion was calculated from urine volume and Ca level. Under isoflurane anaesthesia, jugular vein blood was collected 10 h after administrations to measure serum 1,25(OH)2D3 levels on Day 29 by using a 1,25(OH)2D3 RIA kit (Fujirebio). Four or five TPTX rats were assigned to each dose group. Serum and urine Ca levels were measured in the same way as in the single-dosing study. In another experiment, TPTX rats were treated subcutaneously once daily with hPTH(1–84) at 9 nmol kg^−1, for 4 weeks. Serum Ca was measured immediately before and at 2, 6 and 10 h after administration on day 1 (the first dosing day), 7, 14, 21 and 28 using the same method as described above. Urine was collected for 24 h by using metabolic cages on days 28 and 29, and Ca excretion was calculated from urine volume and Ca level.

Cc1cc(N2C(=O)NC(=O)C2(C)C)cc(C)c1CCS(=O)(=O)N1CCC2(CC1)N=C(c1ccc(OC(F)(F)F)cc1)NC2=O [PCO371, 1-{3,5-dimethyl-4-[2-({4-oxo-2-[4-(trifluoromethoxy)phenyl]-1,3,8-triazaspiro[4.5]dec-1-en-8-yl}sulfonyl)ethyl]phenyl}-5,5-dimethylimidazolidine-2,4-dione]
EC50 (hPTHR1): 2.4 µM
cAMP production (endogenous rat PTHR1; 1 μmol l^−1, 20 min): did not induce cAMP production
cAMP production (endogenous rat PTHR1; 20 min): induced cAMP production
Serum 1,25(OH)2D3 levels (TPTX rats; 9 mg kg^−1 twice-daily oral, 4 weeks): increased significantly
urinary Ca excretion (TPTX rats; after 4-week treatment, up to 9 mg kg^−1 twice-daily oral): not increased
hypercalcemia (>11.2 mg dl^−1) (TPTX rats; at 0, 6 and 10 h after administrations on days 1, 7, 14, 22 and 29): no hypercalcemia
time serum Ca maintained within the target range after each administration (TPTX rats; twice-daily oral 3 mg kg^−1 or more, 4 weeks): at least 6 h
body weight or general condition vs vehicle-treated rats (TPTX rats; twice-daily oral, 4 weeks): no significant difference
dose that increased serum Ca to within the target therapeutic range (TPTX rats; twice-daily oral, 4 weeks, range 7.6–11.2 mg dl^−1): ≥ 3 mg/kg
